Assay results reported in patent US7071232B1, “Small molecules that increase the conversion of food to body weight gain” (priority 1998, dated 2006).
Several values for one entry are separate records, joined by “and”; a condition that tells them apart may be missing. Equal entries are not always repeated. Where two headings read alike, the source gives them in different places.

Experiments:
[1] = tested on: Peterson×Hubbard male broiler chicks; conditions: in vivo
[2] = tested on: Avian x Ross broiler chicks; test: Second experiment, less environmental stress: feed efficiency ratios through day 14; assay type: in vivo; conditions: for Feed efficiency ratio, MEAN: through day 14; for conversion of feed to weight vs saline (in words): day 14
[3] = tested on: Peterson×Hubbard male broiler chicks; conditions: in vivo; remark: listed apart in the source

NCCC(=O)NCCSSCCNC(=O)CCN [beta-alethine]
Deliverable Weight Ratio [1]: 1.367 | Deliverable Weight Ratio, % improvement vs negative control [1]: 10.8% | Feed Efficiency [1]: 1.298 | Feed Efficiency, % improvement vs negative control [1]: 7.9% | % decrease over saline control, saline #1 ([2]; 2 pg in ovo vs saline in ovo #1): 0.34% | % decrease over saline control, saline #2 ([2]; 2 pg in ovo vs saline in ovo #2): −0.34% | Feed efficiency ratio, MEAN ([2]; 2 pg per bird in ovo): 1.181 | Feed efficiency ratio, MEAN ([2]; 2 pg per bird sc): 1.173 | % decrease over saline control ([2]; 2 pg sc vs saline s.c. control): −0.89% | % decrease over saline control, saline #1 ([2]; 2 ng in ovo + fed in water (2 ng weekly) vs saline in ovo #1): 2.39% | % decrease over saline control, saline #2 ([2]; 2 ng in ovo + fed in water (2 ng weekly) vs saline in ovo #2): 1.73% | Feed efficiency ratio, MEAN ([2]; 2 ng in ovo + fed in water (2 ng weekly)): 1.157 | % decrease over saline control, saline #1 ([2]; 2 ng in ovo vs saline in ovo #1): 3.21% | conversion of feed to weight vs saline (in words) ([2]; 2 ng in ovo): significantly greater conversion of feed to weight | Feed efficiency ratio, MEAN ([2]; 2 ng per bird in ovo): 1.147 | Feed efficiency ratio, MEAN ([2]; 2 ng per bird sc): 1.150 | conversion of feed to weight vs saline (in words) ([2]; 2 ng s.c., not significant vs s.c. saline): significantly better than saline given in ovo | % decrease over saline control ([2]; 2 ng sc vs saline s.c. control): 1.16% | average decrease in feed efficiency ratios ([2]; normal flock of Avian×Ross broiler chicks): about 4% | Survival (% Alive) [3]: 96% and 100% and 99% and 98% | chicks died in one pen [3]: 5 | mortality rate [3]: 0% | # dead from all causes of death (cumulative) ([3]; sc): 0 | Survival (% Alive) ([3]; sc): 100%
